Assay results from patent US20220095648A1, “USE OF A THRAUSTOCHYTRID BIOMASS FOR MAINTAINING GUT BARRIER FUNCTION” (priority 2019, published 2022).

Experiments:
[1] = tested on: Ross 308 broilers; assay: Gut permeability: FITC-dextran in plasma of DSS-treated broiler chickens; type: in vivo; settings: DSS administration, control diet; blood 1 h after oral gavage
Description: (§1) Material and Methods: • Experimental animals: Day-of-hatch male Ross 308 broilers were obtained from a local hatchery, placed in floor pens until 6 days of age, and provided heat to maintain an age-appropriate temperature. Chicks were provided ad libitum access to water and the balanced experimental diets meeting the poultry nutrition requirements recommended for Ross 308 broilers during the starter period from 1 to 16 days of age. • Experimental diets: A basal starter diet (CON) in the form of short pellets was formulated based on wheat, corn, and soybean meal (Table 14). The other experimental diets were formulated to contain 5% microalgae Aurantiochytrium mangrovei (MAG-5) or 2% curcumin (CUM-2) by replacing part of the cereal, protein or oil content. […]
(§2) • Dextran Sulfate Sodium (DSS) administration: DSS was used to increase intestinal permeability in broilers, by inducing epithelium damage. […] Fluorescence levels of diluted plasma (1:4 in saline solution 0.9% NaCl) were measured at an excitation wavelength of 485 nm and emission wavelength of 528 nm (BIOTEK synergie H1), and FITC-dextran concentration per mL of plasma was calculated based on a standard curve. • At the time of euthanisa, the colon was collected for morphometry. […] The colon (from the ileocecal junction to the cloaca) was then excised and its length was measured.

[2] = tested on: Ross 308 broilers; assay: Colon length and colon mucosa aspect in DSS-treated broiler chickens; type: in vivo; settings: DSS in drinking water, control diet
Description: as §1, §2

[3] = tested on: Caco-2 cells; assay: L-Methionine uptake by Caco-2 cells exposed to DON; type: cell-based; settings: for % of inhibition by DON, Passive uptake (−Na) / % of inhibition by DON, Total uptake (+Na) / % of inhibition by DON, Active transport: L-Methionine, DON 10 μM alone; for % of inhibition by DON, Active transport: total minus passive
Description: (§3) In order to test the ability of microalgae to reduce/prevent the effect of DON on nutrient absorption through epithelial cells, Caco-2 cells were exposed to a metabolically active dose of DON, in the absence or presence of Aurantiochytrium mangrovei FCC1325 microalgae (lyophilized microalgae “ML”, or digested lyophilized microalgae “MLD”), at a dose of 1% or 5%. Two main types of nutrients were considered (i.e. glucose and amino acids—more particularly Methionine, Lysine and Threonine), and the following measurements were carried out: • For glucose (D-Glc): passive, active (regulated by the sodium-dependent SGLT-1 transporter) and total (active+passive) absorption • For amino acids (L-Methionine, L-Lysine and L-Threonine): passive, active (regulated by sodium-dependent transport) and total (active+passive) absorption
(§4) Briefly, Caco-2 cells were cultured and seeded onto 12-well inserts, as described in Example 1, and then let to differentiate for 16-21 days post-seeding before being used, with medium changes every two days. When differentiated, Caco-2 cells were incubated or not with DON at 10 μM (apically added), in the absence or presence of 1 or 5% (v:v final dilution, apically added) of microalgae preparation (ML or MLD). Both ML and MLD powders were resuspended initially at 0.8 mg/ml in buffer (fresh culture medium of the microalgae). Caco-2 cells were incubated for 12, 24 or 48 hours before nutrient uptake was measured.
(§5) At the end of the incubation period, inserts were washed twice with PBS++. Inserts were then washed twice with uptake buffer (Ringer Hepes buffer) with or without sodium. Uptake buffer composition was: • Ringer Hepes buffer with sodium (called “+Na+”): 137 mmol/L NaCl, 5.36 mmol/L KCl, 0.4 mmol/L Na2HPO4, 0.8 mmol/L MgCl2, 1.8 mmol/L CaCl2, 20 mmol/L N-2-hydroxyethylpiperazine-N-2-ethanesulfonic acid (HEPES), pH being adjusted to pH 7.4 with NaOH; or • Ringer Hepes buffer without sodium (called “—Na+”): 137 mmol/L Choline chloride (instead of sodium chloride), 5.36 mmol/L KCl, 0.4 mmol/L K2HPO4 (instead of Na2HPO4), 0.8 mmol/L MgCl2, 1.8 mmol/L CaCl2, 20 mmol/L N-2-hydroxyethylpiperazine-N-2-ethanesulfonic acid (HEPES), pH being adjusted to pH 7.4 with KOH.
(§6) After an equilibration period of 15 min at 37° C., uptake assay was initiated by the addition of D-Glc, L-Lysine, L-Methionine or L-Threonine diluted in the appropriate Ringer Hepes buffer (400 μl) and added apically onto Caco-2 inserts (final concentration of 100 μM of D-Glc and 400 μM for amino-acids), the basolateral compartment being filled with 400 μl of buffer. Inserts were kept incubated at 37° C. during the uptake assay. After 15 minutes incubation, 30 μl of media were collected from apical or basolateral compartments and stored at −20° C. until nutrient quantification. Residual concentrations of D-Glc or L-amino acid present in the apical compartments were measured using enzyme-based quantification assay kits (Glucose Colorimetric/Fluorometric Assay Kit, Sigma-Aldrich).
(§7) Uptakes were expressed as: • Total uptake: uptake measured (either measured residual apical concentration or calculated absorbed (intracellular+basolateral) concentration) in Ringer Hepes buffer with Na+corresponding to the activity of sodium-dependent and sodium-independent transporters; • Passive uptake: uptake measured in Ringer Hepes buffer without Na+corresponding to only passive/sodium-independent transporters; • Active uptake: uptake calculated by subtracting passive uptake to total uptake.

[4] = tested on: Caco-2 cells; assay: Nutrient uptake by Caco-2 cells exposed to DON (overall conclusion); type: cell-based; settings: DON at 10 μM
Method: In order to test the ability of microalgae to reduce/prevent the effect of DON on nutrient absorption through epithelial cells, Caco-2 cells were exposed to a metabolically active dose of DON, in the absence or presence of Aurantiochytrium mangrovei FCC1325 microalgae (lyophilized microalgae “ML”, or digested lyophilized microalgae “MLD”), at a dose of 1% or 5%. […]
Briefly, Caco-2 cells were cultured and seeded onto 12-well inserts, as described in Example 1, and then let to differentiate for 16-21 days post-seeding before being used, with medium changes every two days. […] Caco-2 cells were incubated for 12, 24 or 48 hours before nutrient uptake was measured. […]
as §6, with “Inserts were kept incubated at 37° C. during the uptake assay.” left out, “Sigma-Aldrich). […]” for “Sigma-Aldrich).”

[5] = tested on: Caco-2 cells; assay: L-Threonine uptake by Caco-2 cells exposed to DON; type: cell-based; settings: DON 10 μM alone; for % of inhibition by DON, Active transport: total minus passive
Description: as §3, §4, §5, §6, §7

[6] = tested on: Caco-2 cells; assay: D-glucose total and passive uptake by Caco-2 cells exposed to DON; type: cell-based; settings: DON 10 μM alone
Description: as §3, §4, §5, §6, §7

[7] = tested on: Caco-2 cells; assay: L-Lysine uptake by Caco-2 cells exposed to DON; type: cell-based; settings: for % of inhibition by DON, Passive uptake (−Na) / % of inhibition by DON, Total uptake (+Na) / % of inhibition by DON, Active transport: L-Lysine, DON 10 μM alone; for % of inhibition by DON, Active transport: total minus passive
Description: as §3, §4, §5, §6, §7

[8] = tested on: sodium-dependent SGLT-1 transporter; assay: SGLT-1 mediated (active) D-glucose uptake by Caco-2 cells exposed to DON; type: cell-based; settings: DON 10 μM alone, total minus passive
Description: as §3
as §4, with “Both ML and MLD powders were resuspended initially at 0.8 mg/ml in buffer (fresh culture medium of the microalgae).” left out, “measured. […]” for “measured.”
as §6, with “Inserts were kept incubated at 37° C. during the uptake assay.” left out, “Sigma-Aldrich). […]” for “Sigma-Aldrich).”

[9] = tested on: Caco-2 cells; assay: TER of Caco-2 cells exposed to DON; type: cell-based
Method: Caco-2 cells were used as a model of intestinal epithelial cells. Cells were routinely grown in culture media (DMEM) supplemented with 10% fetal calf serum and 1% antibiotics (streptomycin penicillin solution). Cells were grown in 75 cm^2 ventilated flasks maintained at 37° C. in a 5% CO2 incubator. Cells were routinely passaged using trypsin-EDTA solution. For the assay, cells were seeded onto 12-well inserts (Thincert, Greiner, pore size 0.4 μm) at an initial density of 200,000 cells/cm^2 and let to differentiate for 10-14 days post-seeding before being used, with medium changes every two days. Cell differentiation was confirmed by reading the TER, using a Volt/Ohm meter (Millipore), at the beginning of the experiment, when the TER value reached 600 Ohm/cm^2. […]
After differentiation, Caco-2 cells were put in contact, during 48 or 72 h, with or without DON at different concentrations (0, 6.25, 12.5, 25, 50 or 100 μM), and with activated charcoal at 1% (w/v) as positive control, or with or without one of the microalgae preparation type at different concentrations (1, 5, or 20% v:v, final dilution), each added on the apical side. At the end of the incubation time, the TER was measured using a Volt/Ohm meter (Millipore), and results were expressed in percentages of the control put in contact with the same concentration of DON but not with the tested product (microalgae or charcoal). […]

## Dextran Sulfate Sodium [DSS]
[1]
  flow of FITC-dextran through the gut barrier: significantly increased
[2]; 16-day old chickens, compared with group without DSS
  length of the colon: significantly increased
[2]; compared with DSS- control group
  visual observation of the colon mucosa: thinner, translucent, and more fragile

## CC1=C[C@H]2O[C@@H]3[C@H](O)C[C@](C)([C@@]2(CO)[C@H](O)C1=O)[C@]31CO1 [DON, Deoxynivalenol]
[3]; 12 h incubation
  effect of DON on L-Met active uptake: stimulated
[3]; 48 h incubation, DON alone
  effect of DON on active L-Met uptake: stimulated
[3]; 12 h
  % of inhibition by DON, Passive uptake (−Na): −2.2%
  % of inhibition by DON, Total uptake (+Na): −9.6%
  % of inhibition by DON, Active transport: −256.0%
[3]; 24 h
  % of inhibition by DON, Passive uptake (−Na): −4.9%
  % of inhibition by DON, Total uptake (+Na): −12.9%
[3]; 48 h
  % of inhibition by DON, Passive uptake (−Na): 1.8%
  % of inhibition by DON, Total uptake (+Na): −4.1%
  % of inhibition by DON, Active transport: −102.4%
[4]
  effect of DON on intestinal nutrient uptake: alters intestinal nutrient uptake
[5]; 12 h
  % of inhibition by DON, Passive uptake (−Na): −9.5%
  % of inhibition by DON, Total uptake (+Na): −6.3%
  % of inhibition by DON, Active transport: 56.5%
[5]; 24 h
  % of inhibition by DON, Passive uptake (−Na): −9.5%
  % of inhibition by DON, Total uptake (+Na): −6.3%
  % of inhibition by DON, Active transport: 56.5%
[5]; 48 h
  % of inhibition by DON, Passive uptake (−Na): −16.9%
  % of inhibition by DON, Total uptake (+Na): −14.5%
  % of inhibition by DON, Active transport: 76.4%
[6]; 12 h
  % of inhibition by DON, Passive uptake (−Na): 6.4%
  % of inhibition by DON, Total uptake (+Na): 9.3%
[6]; 24 h
  % of inhibition by DON, Passive uptake (−Na): 22.2%
  % of inhibition by DON, Total uptake (+Na): 29.4%
[6]; 48 h
  % of inhibition by DON, Passive uptake (−Na): 21.6%
  % of inhibition by DON, Total uptake (+Na): 28.8%
[7]; 48 h incubation, DON alone
  effect of DON on active L-Lys uptake: stimulated
[7]; 12 h
  % of inhibition by DON, Passive uptake (−Na): −6.1%
  % of inhibition by DON, Total uptake (+Na): −5.2%
  % of inhibition by DON, Active transport: 57.5%
[7]; 24 h
  % of inhibition by DON, Passive uptake (−Na): −10.1%
  % of inhibition by DON, Total uptake (+Na): −5.2%
  % of inhibition by DON, Active transport: 44.2%
[7]; 48 h
  % of inhibition by DON, Passive uptake (−Na): −6.6%
  % of inhibition by DON, Total uptake (+Na): −9.4%
  % of inhibition by DON, Active transport: −102.3%
[8]; 12 h
  % of inhibition by DON, SGLT-1 mediated: 19.2%
[8]; 24 h
  % of inhibition by DON, SGLT-1 mediated: 52.3%
[8]; 48 h
  % of inhibition by DON, SGLT-1 mediated: 51.4%
[9]; DON 6.25-100 μM, more pronounced as concentration increased
  effect of DON only on the TER: induced a reduction of the TER
[9]; IC50 of DON on TER, control without tested product, 48 h
  IC50: 11 µM
